The source made the active and inactive calls. The rule behind the calls is not given here.

In assay [1] the target is T1, von Hippel-Lindau disease tumor suppressor/Bromodomain-containing protein 4 (Homo sapiens, UniProt O60885+P40337). Description: PROTAC activity at BRD4/VHL in human MCF7 cells assessed as reduction in BRD4 level incubated for 24 hrs in presence of […]-1-((S)-2-(2,3-dihydroxybenzamido)-3,3-dimethylbutanoyl)-4-hydroxy-N-(4-(4-methylthiazol-5-yl)benzyl)pyrrolidine-2-carboxamide by Western blot based Combinatorial Ubiquitination Real-time PROteolysis analysis. It is filed as cell-based. In general terms: A western blot detects proteins with antibodies after separation by electrophoresis.
T1 sequence (P40337 whole entry, looked up, other chains not shown): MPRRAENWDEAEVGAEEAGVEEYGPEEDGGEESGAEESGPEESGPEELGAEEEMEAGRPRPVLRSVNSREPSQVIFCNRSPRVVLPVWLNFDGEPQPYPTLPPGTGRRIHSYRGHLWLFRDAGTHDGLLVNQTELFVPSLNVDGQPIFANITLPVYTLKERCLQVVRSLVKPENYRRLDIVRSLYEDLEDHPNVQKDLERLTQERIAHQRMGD

For assay [2], the target named is Protein cereblon/Bromodomain-containing protein 4 (Homo sapiens) (UniProt O60885+Q96SW2). As to the kind of experiment: PROTAC activity at BRD4/CRBN in human HeLa cells assessed as induction of BRD4 degradation at 10 uM incubated for 24 hrs in presence of CRBN based ligand (1S,4R,5R,6S)-N-((2-(2,6-dioxopiperidin-3-yl)-1,3-dioxoisoindolin-4-yl)methyl)-5,6-dihydroxybicyclo[2.2.1]heptane-2-carboxamide by Western blot analysis based Combinatorial Ubiquitination Real-time PROteolysis analysis. Type of assay: cell-based.
Protein cereblon/Bromodomain-containing protein 4 (Homo sapiens), sequence (Q96SW2 whole entry, looked up, other chains not shown): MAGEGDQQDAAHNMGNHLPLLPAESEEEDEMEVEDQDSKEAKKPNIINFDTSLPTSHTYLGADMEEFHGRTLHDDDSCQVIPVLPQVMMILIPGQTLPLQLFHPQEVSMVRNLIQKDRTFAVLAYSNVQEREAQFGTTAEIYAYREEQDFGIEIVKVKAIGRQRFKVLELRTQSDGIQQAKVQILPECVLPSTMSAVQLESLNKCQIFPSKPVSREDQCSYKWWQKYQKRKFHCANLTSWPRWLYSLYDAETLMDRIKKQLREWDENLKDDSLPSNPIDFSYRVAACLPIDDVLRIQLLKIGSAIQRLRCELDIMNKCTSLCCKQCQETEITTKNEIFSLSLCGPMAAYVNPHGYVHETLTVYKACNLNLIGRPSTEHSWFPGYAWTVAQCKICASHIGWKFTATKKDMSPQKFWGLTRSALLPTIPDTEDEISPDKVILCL

Assay [3] deals with T1, von Hippel-Lindau disease tumor suppressor/Bromodomain-containing protein 4. Description: PROTAC activity at VHL/BRD4 in HEK293 cells assessed as induction of BRD4 degradation by measuring maximal level of degradation at 0.3 uM measured every 15 mins for 24 hrs in presence of VHL based ligand (2S,4R)-1-((S)-2-(2,3-dihydroxybenzamido)-3,3-dimethylbutanoyl)-4-hydroxy-N-(4-(4-methylthiazol-5-yl)benzyl)pyrrolidine-2-carboxamide by HiBiT based Combinatorial Ubiquitination Real-time PROteolysis analysis. It is filed as cell-based.

Assay [4] has the same target. Description: PROTAC activity at VHL/BRD4 in HEK293 cells assessed as induction of BRD4 degradation by measuring Tmax at 1 uM measured every 15 mins for 24 hrs in presence of VHL based ligand (2S,4R)-1-((S)-2-(2,3-dihydroxybenzamido)-3,3-dimethylbutanoyl)-4-hydroxy-N-(4-(4-methylthiazol-5-yl)benzyl)pyrrolidine-2-carboxamide by HiBiT based Combinatorial Ubiquitination Real-time PROteolysis analysis. It is filed as cell-based. In general terms: The HiBiT peptide binds its large partner to form an active luciferase.

Assay [5] shares this target. Description: PROTAC activity at VHL/BRD4 in human MCF7 cells assessed as induction of BRD4 degradation at 10 uM incubated for 24 hrs in presence of VHL ligand based (2S,4R)-1-((S)-2-(2,3-dihydroxybenzamido)-3,3-dimethylbutanoyl)-4-hydroxy-N-(4-(4-methylthiazol-5-yl)benzyl)pyrrolidine-2-carboxamide by Western blot based Combinatorial Ubiquitination Real-time PROteolysis analysis. It is filed as cell-based.

The target is the same in assay [6]. Description: PROTAC activity at BRD4/VHL in human MCF7 cells assessed as induction of BRD4 degradation by measuring residual activity at 1 uM incubated for 24 hrs in presence of VHL based ligand (2S,4R)-1-((S)-2-(2,3-dihydroxybenzamido)-3,3-dimethylbutanoyl)-4-hydroxy-N-(4-(4-methylthiazol-5-yl)benzyl)pyrrolidine-2-carboxamide by Western blot based Combinatorial Ubiquitination Real-time PROteolysis analysis. It is filed as cell-based.

Assay [7] shares this target. Description: PROTAC activity at BRD4/VHL in human MCF7 cells assessed as induction of BRD4 degradation by measuring residual activity at 10 uM incubated for 24 hrs in presence of 300 nM VHL based ligand (2S,4R)-1-((S)-2-(2,3-dihydroxybenzamido)-3,3-dimethylbutanoyl)-4-hydroxy-N-(4-(4-methylthiazol-5-yl)benzyl)pyrrolidine-2-carboxamide by Western blot based Combinatorial Ubiquitination Real-time PROteolysis analysis. Type of assay: cell-based.

Assay [8] shares this target. As to the kind of experiment: PROTAC activity at BRD4/VHL in human MCF7 cells assessed as induction of BRD4 degradation by measuring residual activity at 100 nM incubated for 24 hrs in presence of 1 uM VHL based ligand (2S,4R)-1-((S)-2-(2,3-dihydroxybenzamido)-3,3-dimethylbutanoyl)-4-hydroxy-N-(4-(4-methylthiazol-5-yl)benzyl)pyrrolidine-2-carboxamide by Western blot based Combinatorial Ubiquitination Real-time PROteolysis analysis. Type of assay: cell-based.

Assay [9] has the same target. Description: PROTAC activity at BRD4/VHL in human MCF7 cells assessed as reduction in BRD4 level incubated for 24 hrs in presence of VHL based ligand ((4S)-6-(4-chlorophenyl)-4-(2-(ethylamino)-2-oxoethyl)-1-methyl4Hbenzo[f][1,2,4]triazolo [4,3-a][1,4]diazepin-8-yl)boronic acid by Western blot based Combinatorial Ubiquitination Real-time PROteolysis analysis. Type of assay: cell-based.

Assay [10] has the same target. Description: PROTAC activity at VHL/BRD4 in HEK293 cells assessed as induction of BRD4 degradation by measuring degradation rate at 0.3 uM measured every 15 mins for 24 hrs in presence of BRD4 based ligand ((4S)-6-(4-chlorophenyl)-4-(2-(ethylamino)-2-oxoethyl)-1-methyl4Hbenzo[f][1,2,4]triazolo [4,3-a][1,4]diazepin-8-yl)boronic acid by HiBiT based Combinatorial Ubiquitination Real-time PROteolysis analysis. It is filed as cell-based.

Assay [11] shares this target. As to the kind of experiment: PROTAC activity at VHL/BRD4 in HEK293 cells assessed as induction of BRD4 degradation by measuring degradation rate at 1 uM measured every 15 mins for 24 hrs in presence of BRD4 based ligand ((4S)-6-(4-chlorophenyl)-4-(2-(ethylamino)-2-oxoethyl)-1-methyl4Hbenzo[f][1,2,4]triazolo [4,3-a][1,4]diazepin-8-yl)boronic acid by HiBiT based Combinatorial Ubiquitination Real-time PROteolysis analysis. Type of assay: cell-based.

The target is the same in assay [12]. As to the kind of experiment: PROTAC activity at VHL/BRD4 in HEK293 cells assessed as induction of BRD4 degradation by measuring maximal level of degradation at 10 uM measured every 15 mins for 24 hrs in presence of BRD4 based ligand ((4S)-6-(4-chlorophenyl)-4-(2-(ethylamino)-2-oxoethyl)-1-methyl4Hbenzo[f][1,2,4]triazolo [4,3-a][1,4]diazepin-8-yl)boronic acid by HiBiT based Combinatorial Ubiquitination Real-time PROteolysis analysis. Type of assay: cell-based.

For assay [13] the target is unchanged. As to the kind of experiment: PROTAC activity at BRD4/VHL in human MCF7 cells assessed as induction of BRD4 degradation by measuring residual activity at 300 nM incubated for 24 hrs in presence of BRD4 based ligand ((4S)-6-(4-chlorophenyl)-4-(2-(ethylamino)-2-oxoethyl)-1-methyl4Hbenzo[f][1,2,4]triazolo [4,3-a][1,4]diazepin-8-yl)boronic acid by Western blot based Combinatorial Ubiquitination Real-time PROteolysis analysis. It is filed as cell-based.

Assay [14] has the same target. As to the kind of experiment: PROTAC activity at BRD4/VHL in human MCF7 cells assessed as induction of BRD4 degradation by measuring residual activity at 100 nM incubated for 24 hrs in presence of 300 nM BRD4 based ligand ((4S)-6-(4-chlorophenyl)-4-(2-(ethylamino)-2-oxoethyl)-1-methyl4Hbenzo[f][1,2,4]triazolo [4,3-a][1,4]diazepin-8-yl)boronic acid by Western blot based Combinatorial Ubiquitination Real-time PROteolysis analysis. It is filed as cell-based.

The next assay has as its system MV4-11. As to the kind of experiment: Antitumor activity against human MV4-11 cells xenografted in nude mouse assessed as reduction in BRD4 level in tumor at 10 mg/kg, ip administered for 4 hrs and measured at 9 to 12 hrs in presence of BRD4 based ligand ((4S)-6-(4-chlorophenyl)-4-(2-(ethylamino)-2-oxoethyl)-1-methyl4Hbenzo[f][1,2,4]triazolo [4,3-a][1,4]diazepin-8-yl)boronic acid. It is filed as functional, organism-based. The conditions noted are these: time 9-12 hrs. In general terms: Xenograft models place foreign cells or tissue in a host animal.

For the compound `CCNC(=O)C[C@@H]1N=C(c2ccc(Cl)cc2)c2cc(B(O)O)ccc2-n2c(C)nnc21`, the outcome in [1] and in assay [5] was Active. Besides, in assay [1], the DC50 worked out at 358 nM. For the same compound, the result in assay [2] was inactive. In addition, the Emax (in general, the size of the effect at its maximum, as opposed to the concentration needed) in [3] is 47%. In assay [4], the Tmax turned out to be 19.5 h. For the same compound, the Activity came to 64% in assay [6], 48% in [7] and 101% in assay [8].
On to `Cc1ncsc1-c1ccc(CNC(=O)[C@@H]2C[C@@H](O)CN2C(=O)[C@@H](NC(=O)c2cccc(O)c2O)C(C)(C)C)cc1`, for which the result (in assay [9]; with MV4-11) was Active. In addition, the DC50 in [9] turned out to be 358 nM. Besides, the Activity in assay [10] was 0.144 h⁻¹; in assay [11], 0.548 h⁻¹; in assay [13], 100%; in [14] it was 77%. Also, the Emax in [12] stood at 96%.
